# Measured values published in patent publication US20240293559A1, “SHP2 inhibitor, pharmaceutical composition containing the same and application thereof” (BEIJING TIDE PHARMACEUTICAL CO., LTD., priority 2021, published 2024).
# Target: T1, SHP2 (Homo sapiens, UniProt Q06124)
# T1 construct: endogenous in cells; host or cells: MV 411
# T1 sequence (Q06124 1-593): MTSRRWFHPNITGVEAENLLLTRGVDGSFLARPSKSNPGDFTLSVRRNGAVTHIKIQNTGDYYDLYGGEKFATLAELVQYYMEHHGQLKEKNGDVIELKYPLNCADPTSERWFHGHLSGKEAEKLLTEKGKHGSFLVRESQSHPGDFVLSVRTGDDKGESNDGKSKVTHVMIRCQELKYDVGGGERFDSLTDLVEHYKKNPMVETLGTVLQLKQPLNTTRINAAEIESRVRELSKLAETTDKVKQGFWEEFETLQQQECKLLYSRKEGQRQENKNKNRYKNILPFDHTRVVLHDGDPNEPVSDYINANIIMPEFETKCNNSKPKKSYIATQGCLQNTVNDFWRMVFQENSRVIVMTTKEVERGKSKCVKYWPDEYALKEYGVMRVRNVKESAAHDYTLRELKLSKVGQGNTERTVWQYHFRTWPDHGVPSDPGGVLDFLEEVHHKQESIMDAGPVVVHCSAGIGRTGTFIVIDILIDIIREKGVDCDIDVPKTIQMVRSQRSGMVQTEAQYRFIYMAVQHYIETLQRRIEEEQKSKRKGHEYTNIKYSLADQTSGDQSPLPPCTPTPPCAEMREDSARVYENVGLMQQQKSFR
# Assay: SHP2 degradation in MV 411 cells by Western blot (median degradation concentration)
# Type: cell-based
# Details: 24 hours with compound, SHP-2 antibody Western blot, concentration of the median degradation from exposure gray scale
# Text: Reagent: complete DMEM medium, Gibco products. Fetal bovine serum, manufactured byThermoFisher. Trypsin, manufactured byThermoFisher. The SHP-2 antibody is produced by CST. Cell line, MV 411, the blast cells of patients with bi-phenotypic B-myelomonocytic leukemia, was established by Rovera. Measuring method: took the cells growing in the logarithmic phase, collected and suspended the cells in DMEM containing 10% fetal calf serum, gently blowed and beated the cells into single cell suspension by using a pipette, and counted the living cells under a microscope. […] Then cultured for 24 hours. All cells were collected and washed with PBS, lysed with RIPA lysate and collected into a 1.7 ml tube. […] metal bath for 5 minutes to fully denature the protein. 100V constant voltage electrophoresis after Western condensation and loading, stopped when bromophenol blue band reached the end point. The cellulose acetate membrane is transferred by a wet method, 45 minutes at a constant flow of 300-500 mA, 5% BSA is used for blocking for 1-2 hours at room temperature. Primary antibody of 1:500-1:8000 were used for incubation at 25° C. for 40 minutes and then washed three times. Secondary antibody was used for incubation for 15-40 min at room temperature. The proteins were detected using ultrasensitive ECL luminophores such as […], using an X-Ray film automatic developing machine. The concentration of the median degradation was calculated by exposure gray scale.
row,SMILES,DC50
1,CCOc1cc2oc(-c3ccc(NCCOCCOCCOCCOc4cccc5c4C(=O)N(C4CCC(=O)NC4=O)C5=O)cc3Cl)cc(=O)c2cc1-c1cccc(CO)c1 (stereo not shown) [Compound 11],50 nM
2,CCOc1cc2oc(-c3ccc(NCCOCCOCCOCCOc4cccc5c4C(=O)N(C4CCC(=O)NC4=O)C5=O)cc3Cl)cc(=O)c2cc1CN1CCC=C(n2c(=O)[nH]c3cc(NS(=O)(=O)C4CC4)ccc32)C1 (stereo not shown) [Compound 50],> 750 nM
3,CCOc1cc2oc(-c3ccc(OCCOCCOCCOCCOc4cccc5c4C(=O)N(C4CCC(=O)NC4=O)C5=O)cc3Cl)cc(=O)c2cc1CCC(=O)Nc1ccccc1 (stereo not shown) [Compound 72],> 250 nM
4,CCOc1cc2oc(-c3ccc(OCCOCCOCCOCCOc4ccc5c(c4)C(=O)N(C4CCC(=O)NC4=O)C5=O)cc3Cl)cc(=O)c2cc1-c1cc(C(C)=O)cc(C(N)=O)c1 (stereo not shown) [Compound 35],25 nM
5,CCOc1cc2oc(-c3ccc(OCCOCCOCCOCCOc4cccc5c4C(=O)N(C4CCC(=O)NC4=O)C5=O)cc3Cl)cc(=O)c2cc1-c1cc(NC(C)=O)cc(C(N)=O)c1 (stereo not shown) [Compound 64],> 250 nM
6,CCOc1cc2oc(-c3ccc(OCCOCCOCCOCCOc4cccc5c4C(=O)N(C4CCC(=O)NC4=O)C5=O)cc3Cl)cc(=O)c2cc1-c1cc(O)cc(C(N)=O)c1 (stereo not shown) [Compound 73],> 250 nM
7,CCOc1cc2oc(-c3ccc(OCCOCCOCCOCCOc4cccc5c4C(=O)N(C4CCC(=O)NC4=O)C5=O)cc3Cl)cc(=O)c2cc1-c1cc(C(N)=O)cc(-c2ccncc2)c1 (stereo not shown) [Compound 58],500 nM
8,CCOc1cc2oc(-c3ccc(OCCOCCOCCOCCOc4cccc5c4C(=O)N(C4CCC(=O)NC4=O)C5=O)cc3Cl)cc(=O)c2cc1-c1cc(C(N)=O)cc(-c2ccccc2)c1 (stereo not shown) [Compound 55],> 1000 nM
9,CCOc1cc2oc(-c3ccc(OCCOCCOCCOCCOc4cccc5c4C(=O)N(C4CCC(=O)NC4=O)C5=O)cc3Cl)cc(=O)c2cc1-c1cc(C(N)=O)cc(S(=O)(=O)NC)c1 (stereo not shown) [Compound 81],> 500 nM
10,CCOc1cc2oc(-c3ccc(OCCOCCOCCOCCOc4cccc5c4C(=O)N(C4CCC(=O)NC4=O)C5=O)cc3Cl)cc(=O)c2cc1-c1ccc(S(=O)(=O)N2CCOCC2)cc1F (stereo not shown) [Compound 33],3500 nM
11,CCOc1cc2oc(-c3ccc(OCCOCCOCCOCCOc4cccc5c4C(=O)N(C4CCC(=O)NC4=O)C5=O)cc3Cl)cc(=O)c2cc1-c1cc(C(N)=O)cc(C(=O)NC)c1 (stereo not shown) [Compound 76],> 250 nM
12,CCOc1cc2oc(-c3ccc(OCCOCCOCCOCCOc4cccc5c4C(=O)N(C4CCC(=O)NC4=O)C5=O)cc3Cl)cc(=O)c2cc1-c1cc(C(N)=O)cc(-c2ncc[nH]2)c1 (stereo not shown) [Compound 59],> 750 nM
13,CCOc1cc2oc(-c3ccc(OCCOCCOCCOCCOc4cccc5c4C(=O)N(C4CCC(=O)NC4=O)C5=O)cc3Cl)cc(=O)c2cc1-c1cncc(C=O)c1 (stereo not shown) [Compound 29],15 nM
14,CCOc1cc2oc(-c3ccc(OCCOCCOCCOCCOc4cccc5c4C(=O)N(C4CCC(=O)NC4=O)C5=O)cc3Cl)cc(=O)c2cc1-c1ccc(S(C)(=O)=O)cc1F (stereo not shown) [Compound 28],110 nM
15,CCOc1cc2oc(-c3ccc(NCCOCCOCCOCCOc4cccc5c4C(=O)N(C4CCC(=O)NC4=O)C5=O)cc3Cl)cc(=O)c2cc1CN1CCC[C@@H]1CO (stereo partly shown) [Compound 53],5 nM
16,CCOc1cc2oc(-c3ccc(NCCOCCOCCOCCOc4cccc5c4C(=O)N(C4CCC(=O)NC4=O)C5=O)cc3Cl)cc(=O)c2cc1-c1cc(F)cc(C=O)c1 (stereo not shown) [Compound 17],250 nM
17,CCOc1cc2oc(-c3ccc(OCCOCCOCCOCCOc4cccc5c4C(=O)N(C4CCC(=O)NC4=O)C5=O)cc3Cl)cc(=O)c2cc1-c1cc(C(N)=O)cc(-n2ccnc2)c1 (stereo not shown) [Compound 60],> 250 nM
18,CCOc1cc2oc(-c3ccc(OCCOCCOCCOCCOc4cccc5c4C(=O)N(C4CCC(=O)NC4=O)C5=O)cc3Cl)cc(=O)c2cc1-c1cc(C(N)=O)cc(N(C)C)c1 (stereo not shown) [Compound 63],> 250 nM
19,CCOc1cc2oc(-c3ccc(OCCOCCOCCOCCOc4cccc5c4C(=O)N(C4CCC(=O)NC4=O)C5=O)cc3Cl)cc(=O)c2cc1-c1cc(C(N)=O)cc(C(C)(C)C)c1 (stereo not shown) [Compound 43],> 250 nM
20,CCOc1cc2oc(-c3ccc(NCCOCCOCCOCCOc4cccc5c4C(=O)N(C4CCC(=O)NC4=O)C5=O)cc3Cl)cc(=O)c2cc1-c1cccc(C=O)c1 (stereo not shown) [Compound 18],> 1000 nM

row,SMILES,DC50
1,CCOC(=O)c1cncc(-c2cc3c(=O)cc(-c4ccc(OCCOCCOCCOCCOc5cccc6c5C(=O)N(C5CCC(=O)NC5=O)C6=O)cc4Cl)oc3cc2OCC)c1 (stereo not shown) [Compound 41],1000 nM
2,CCOc1cc2oc(-c3ccc(NCCOCCOCCOCCOc4cccc5c4C(=O)N(C4CCC(=O)N(COC(=O)CC6CCCCC6)C4=O)C5=O)cc3Cl)cc(=O)c2cc1-c1cccc(C(C)=O)c1 (stereo not shown) [Compound 89],75 nM
3,CCOc1cc2oc(-c3ccc(OCCOCCOCCOCCOc4cccc5c4C(=O)N(C4CCC(=O)NC4=O)C5=O)cc3Cl)cc(=O)c2cc1-c1cc(C(N)=O)cc(-c2cccnc2)c1 (stereo not shown) [Compound 57],> 1000 nM
4,CCOc1cc2oc(-c3ccc(OCCOCCOCCOCCOc4cccc5c4C(=O)N(C4CCC(=O)NC4=O)C5=O)cc3Cl)cc(=O)c2cc1-c1cc(C(N)=O)cc(N(C)S(=O)(=O)c2ccccc2)c1 (stereo not shown) [Compound 69],> 250 nM
5,CCOc1cc2oc(-c3ccc(OCc4cn(CC(=O)N5CCC(OC6CC(Oc7cccc8c7C(=O)N(C7CCC(=O)NC7=O)C8=O)C6)CC5)nn4)cc3Cl)cc(=O)c2cc1-c1cccc(C(C)=O)c1 (stereo not shown) [Compound 88],55 nM
6,CCOc1cc2oc(-c3ccc(NCCOCCOCCOCCOc4cccc5c4C(=O)N(C4CCC(=O)NC4=O)C5=O)cc3Cl)cc(=O)c2cc1CN1CCCC[C@@H]1C(N)=O (stereo partly shown) [Compound 51],> 250 nM
7,CCOc1cc2oc(-c3ccc(OCCOCCOCCOCCOc4cccc5c4C(=O)N(C4CCC(=O)NC4=O)C5=O)cc3Cl)cc(=O)c2cc1-c1cc(C(C)=O)cc(C(N)=O)c1 (stereo not shown) [Compound 75],24.6 nM
8,CCOc1cc2oc(-c3ccc(OCCOCCOCCOCCOc4cccc5c4C(=O)N(C4CCC(=O)NC4=O)C5=O)cc3Cl)cc(=O)c2cc1-c1cc(C(N)=O)cc(C2CCCCC2)c1 (stereo not shown) [Compound 54],> 250 nM
9,CCOc1cc2oc(-c3ccc(NCCOCCOCCOCCOc4cccc5c4C(=O)N(C4CCC(=O)NC4=O)C5=O)cc3Cl)cc(=O)c2cc1-c1cc(C=O)ccc1F (stereo not shown) [Compound 13],50 nM
10,CCOc1cc2oc(-c3ccc(OCCOCCOCCOCCOc4cccc5c4C(=O)N(C4CCC(=O)NC4=O)C5=O)cc3Cl)cc(=O)c2cc1-c1cc(C(N)=O)cc(C(=O)Nc2ccccc2)c1 (stereo not shown) [Compound 78],> 250 nM
11,CCOc1cc2oc(-c3ccc(OCCOCCOCCOCCOc4cccc5c4C(=O)N(C4CCC(=O)NC4=O)C5=O)cc3Cl)cc(=O)c2cc1-c1cc(N)cc(C(=O)O)c1 (stereo not shown) [Compound 30],2000 nM
12,CCOc1cc2oc(-c3ccc(OCCOCCOCCOCCOc4cccc5c4C(=O)N(C4CCC(=O)NC4=O)C5=O)cc3Cl)cc(=O)c2cc1-c1cc(N)cc(C(N)=O)c1 (stereo not shown) [Compound 32],850 nM
13,CCOc1cc2oc(-c3ccc(NCCOCCOCCOCCOc4ccc5c(c4)C(=O)N(C4CCC(=O)NC4=O)C5=O)cc3Cl)cc(=O)c2cc1-c1cccc(C(C)=O)c1 (stereo not shown) [Compound 86],50 nM
14,CCOc1cc2oc(-c3ccc(OCCOCCOCCOCCOc4cccc5c4C(=O)N(C4CCC(=O)NC4=O)C5=O)cc3Cl)cc(=O)c2cc1-c1cc(C(N)=O)cc(S(N)(=O)=O)c1 (stereo not shown) [Compound 80],> 500 nM
15,CCOc1cc2oc(-c3ccc(OCCOCCOCCOCCOc4cccc5c4C(=O)N(C4CCC(=O)NC4=O)C5=O)cc3Cl)cc(=O)c2cc1-c1cc(NC(=O)NC)cc(C(N)=O)c1 (stereo not shown) [Compound 70],> 250 nM
16,CCOc1cc2oc(-c3ccc(NCCOCCOCCOCCOc4cccc5c4C(=O)N(C4CCC(=O)NC4=O)C5=O)cc3Cl)cc(=O)c2cc1-c1ccc2c(c1)CCC2 (stereo not shown) [Compound 12],920 nM
17,CCOc1cc2oc(-c3ccc(OCCOCCOCCOCCOc4cccc5c4C(=O)N(C4CCC(=O)NC4=O)C5=O)cc3Cl)cc(=O)c2cc1-c1cc(NC)cc(C(N)=O)c1 (stereo not shown) [Compound 62],> 250 nM
18,CCOc1cc2oc(-c3ccc(OCCOCCOCCOCCOc4cccc5c4C(=O)N(C4CCC(=O)NC4=O)C5=O)cc3Cl)cc(=O)c2cc1-c1ccccc1C(N)=O (stereo not shown) [Compound 45],> 250 nM
19,CCOc1cc2oc(-c3ccc(OCCOCCOCCOCCOc4cccc5c4C(=O)N(C4CCC(=O)NC4=O)C5=O)cc3Cl)cc(=O)c2cc1-c1cc(C)cc(C(N)=O)c1 (stereo not shown) [Compound 42],750 nM
20,CCOc1cc2oc(-c3ccc(OCCOCCOCCOCCOc4cccc5c4C(=O)N(C4CCC(=O)NC4=O)C5=O)cc3Cl)cc(=O)c2cc1-c1cc(C(N)=O)cc(C(N)=O)c1 (stereo not shown) [Compound 74],2 nM
